Experimental data published in US20260176320A1, “MODULATORS OF G-PROTEIN COUPLED RECEPTORS” (priority 2018, published 2026).
Read-outs that look alike come from different tables or passages of the source.

Experiments:
[1] = target: GLP-1R (Homo sapiens, UniProt P43220); assay: HitHunter cAMP assay (GLP-1R); type: cell-based; conditions: cAMP; for Emax: read-out: (Emax) GLP-1R
Procedure, shortened: (§1)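 Suspension cells (10,000/well) in HBSS with 10 mM HEPES, 625 μM IBMX, 0.2% BSA exposed to 22-point 2-fold agonist series in duplicate for 30 min at room temperature. cAMP measured by antibody immunocompetition with overnight development, luminescence read-out.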

[2] = target: T1, GIP-R (Homo sapiens, UniProt P48546); assay: HitHunter cAMP assay (GIP-R); type: cell-based; conditions: cAMP; for Emax: read-out: (Emax) GIP-R
T1 sequence (P48546 22-466): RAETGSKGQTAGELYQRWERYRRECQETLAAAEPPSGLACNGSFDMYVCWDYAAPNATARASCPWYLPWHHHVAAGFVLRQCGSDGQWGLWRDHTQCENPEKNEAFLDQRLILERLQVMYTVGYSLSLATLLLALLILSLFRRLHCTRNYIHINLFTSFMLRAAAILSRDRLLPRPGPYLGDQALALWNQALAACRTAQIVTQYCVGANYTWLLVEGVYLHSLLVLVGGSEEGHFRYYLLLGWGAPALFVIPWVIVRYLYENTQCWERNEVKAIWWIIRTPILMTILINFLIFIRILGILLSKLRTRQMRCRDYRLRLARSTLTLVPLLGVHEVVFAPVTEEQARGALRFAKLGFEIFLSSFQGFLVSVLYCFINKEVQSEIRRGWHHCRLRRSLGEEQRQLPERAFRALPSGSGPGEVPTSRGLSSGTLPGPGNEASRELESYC
Procedure, shortened: as §1

Sequence of GLP-1R (P43220 24-463): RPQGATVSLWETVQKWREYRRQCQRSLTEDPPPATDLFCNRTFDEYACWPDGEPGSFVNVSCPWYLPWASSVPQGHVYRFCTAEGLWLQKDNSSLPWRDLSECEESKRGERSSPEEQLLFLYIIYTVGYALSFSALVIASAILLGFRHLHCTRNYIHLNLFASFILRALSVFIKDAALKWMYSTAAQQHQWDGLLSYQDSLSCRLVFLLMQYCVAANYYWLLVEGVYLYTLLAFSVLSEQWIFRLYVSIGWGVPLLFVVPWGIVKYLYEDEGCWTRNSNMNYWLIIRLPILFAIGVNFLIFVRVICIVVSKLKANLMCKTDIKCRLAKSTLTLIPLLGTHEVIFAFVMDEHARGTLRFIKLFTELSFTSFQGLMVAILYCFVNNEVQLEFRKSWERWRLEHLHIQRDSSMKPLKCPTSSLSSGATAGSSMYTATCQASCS

Row | SMILES | Emax ([1]; Table 3) [%] | Emax ([1]; Table 3A) [%] | Emax ([2]; Table 3) [%] | Emax ([2]; Table 3A) [%] | EC50 ([1]; Table 3A, read-out: EC50 GLP-1R/nM) [nM] | EC50 ([2]; Table 3A, read-out: EC50 GIP-R/nM) [nM]
1 | CCCCCCCCCCCCCCCC(=O)N[C@@H](CCC(=O)NCCCC[C@H](NC(=O)[C@H](CO)NC(=O)[C@@H]1CCCN1C(=O)[C@@H]1CCCN1C(=O)[C@@H]1CCCN1C(=O)[C@H](C)NC(=O)CNC(=O)[C@H](CO)NC(=O)[C@H](CO)NC(=O)[C@@H]1CCCN1C(=O)CNC(=O)CNC(=O)[C@H](C)NC(=O)[C@H](CC(C)C)NC(=O)[C@H](CC(C)C)NC(=O)[C@H](Cc1c[nH]c2ccccc12)NC(=O)[C@H](CC(N)=O)NC(=O)[C@@H](NC(=O)[C@H](Cc1ccccc1)NC(=O)[C@H](CCC(=O)O)NC(=O)C(C)(C)NC(=O)[C@H](C)NC(=O)[C@H](C)NC(=O)[C@H](CCC(N)=O)NC(=O)[C@H](CCCCN)NC(=O)[C@H](CC(=O)O)NC(=O)[C@H](CC(C)C)NC(=O)[C@H](Cc1ccc(O)cc1)NC(=O)[C@@H](NC(=O)[C@H](CO)NC(=O)[C@H](Cc1ccc(O)cc1)NC(=O)[C@H](CC(=O)O)NC(=O)[C@H](CO)NC(=O)[C@@H](NC(=O)[C@H](Cc1ccccc1)NC(=O)[C@@H](NC(=O)CNC(=O)[C@H](CCC(=O)O)NC(=O)CSCC(=O)NCCN1C(=O)C[C@@H](CC)C1=O)[C@@H](C)O)[C@@H](C)O)[C@@H](C)CC)C(C)C)C(N)=O)C(=O)O (single isomer, unassigned) [Compound 61] | 96 | 96 | 56 | 56 |  | 
2 | CCCCCCCCCCCCCCCC(=O)N[C@@H](CCC(=O)NCCCC[C@H](NC(=O)[C@H](CO)NC(=O)[C@@H]1CCCN1C(=O)[C@@H]1CCCN1C(=O)[C@@H]1CCCN1C(=O)[C@H](C)NC(=O)CNC(=O)[C@H](CO)NC(=O)[C@H](CO)NC(=O)[C@@H]1CCCN1C(=O)CNC(=O)CNC(=O)[C@H](C)NC(=O)[C@H](CC(C)C)NC(=O)[C@H](CC(C)C)NC(=O)[C@H](Cc1c[nH]c2ccccc12)NC(=O)[C@H](CC(N)=O)NC(=O)[C@@H](NC(=O)[C@H](Cc1ccccc1)NC(=O)[C@H](CCC(=O)O)NC(=O)C(C)(C)NC(=O)[C@H](C)NC(=O)[C@H](C)NC(=O)[C@H](CCC(N)=O)NC(=O)[C@H](CCCCN)NC(=O)[C@H](CC(=O)O)NC(=O)[C@H](CC(C)C)NC(=O)[C@H](Cc1ccc(O)cc1)NC(=O)[C@@H](NC(=O)[C@H](CO)NC(=O)[C@H](Cc1ccc(O)cc1)NC(=O)[C@H](CC(=O)O)NC(=O)[C@H](CO)NC(=O)[C@@H](NC(=O)[C@H](Cc1ccccc1)NC(=O)[C@@H](NC(=O)CNC(=O)[C@H](CCC(=O)O)NC(=O)C(C)(C)C(=O)NCCN1CCOCC1=O)[C@@H](C)O)[C@@H](C)O)[C@@H](C)CC)C(C)C)C(N)=O)C(=O)O [Compound 257] |  |  |  | 40 | < 0.1 | 10 to 100
